Results published in patent US12509436B2, “Benzamide derivatives as cGAS-sting pathway agonists” (Baruch S. Blumberg Institute, priority 2018, dated 2025).

tested on: HepG2/STING/ISG54Luc reporter cells; assay: ISG54 luciferase reporter assay; type: cell-based; conditions: Homo sapiens, MinEC5X: minimum effective concentration to induce 5-fold luciferase activity vs mock-treated controls, 4 h post treatment, read-out: Concentration required for 5-fold of IFN-[…] induction
Description: Cell lines. Human hepatoblastoma cell line HepG2 was obtained from ATCC. Establishment of HepG2-derived cell line stably expressing human STING: HepG2 cells stably expressing wild-type human STING (HepG2/STING), were established by transduction of pCX4bsr retroviral vector (Addgene) containing the corresponding STING cDNA and selection with 10 μg/ml of blasticidin. The HepG2/STING cells were then transduced by pGreenFire ISRE lentivector system (System Biosciences) to generate a reporter cell line HepG2/STING/ISG54Luc that expresses firefly luciferase under the control of an ISG54 promoter. The pGreenFire ISRE reporter lentiviral vector contains four copies of consensus interferon stimulated response element (ISRE) sequences derived from ISG54 ISRE1, which control the expression of both green fluorescent protein (GFP) and firefly luciferase in response to IRF3 activation and IFN stimulation. HepG2/STING/ISG54Luc cells were maintained in Dulbecco's modified minimal essential medium (DMEM)/F12 (Invitrogen) supplemented with 10% fetal bovine serum, 100 U/ml penicillin and 100 μg/ml streptomycin, as well as 400 μg/ml of G418 and 2 μg/ml of puromycin.
ISG54 luciferase reporter assay: HepG2/STING/ISG54Luc reporter cells were seeded in black wall/clear bottom 96-well plates at a density of 4×10^4/well in […] of medium overnight. The test compounds were dissolved in DMSO with a stock concentration of 100 mM, and subjected to evaluation of dose-dependent effect on luciferase activity, starting from 100 μM in 2-fold dilution down to 0.78 μM. The experiments were performed in triplex wells.
The firefly luciferase activities were determined at 4 h post treatment with test compounds by using equal volume ([…]) of Steady-Glo to the culture medium (Promega), followed by luminometry in a TopCounter (Perkin Elmer).
Reporting the ISG54 promotor activation activity. The luciferase activities were converted to fold of induction relative to mock treated control. A dose-dependent curve of luciferase activities (fold of induction) for each test compound was generated using average value from the triplex wells. The activity of the test compounds was reported based on the Minimum Effective Concentration (MinEC5X) to induce 5-fold luciferase activity than that of the mock-treated controls.

Row | SMILES | EC (5-fold induction) [µM]
1 | O=C(Nc1cccc2ccccc12)c1cc2c(cc1Br)OCO2 | ≤ 50
2 | O=C(Nc1cccc2ccccc12)c1ccccc1Br | 50 to 100
3 | O=C(Nc1cccc2ccccc12)c1ccc(Cl)cc1Br | ≤ 50
4 | O=C(Nc1cccc2ccccc12)c1ccc(Cl)cc1F | ≤ 50
5 | COc1ccc(C(=O)Nc2cccc3ccccc23)c(Br)c1 | ≤ 50
6 | O=C(Nc1cccc2ccccc12)c1ccc(Cl)cc1Cl | ≤ 50
7 | Cc1cc(Cl)ccc1C(=O)Nc1cccc2ccccc12 | ≤ 50
8 | O=C(Nc1cccc2ccccc12)c1cc(F)c(F)cc1Br | ≤ 50
9 | O=C(Nc1cccc2ccccc12)c1cc(F)ccc1Br | ≤ 50
10 | O=C(Nc1cccc2ccccc12)c1cccc(Cl)c1Cl | ≤ 50
11 | O=C(Nc1cccc2ccccc12)c1nccnc1Cl | ≤ 50
12 | Cn1nc(C(=O)Nc2cccc3ccccc23)c2ccccc21 | ≤ 50
13 | O=C(Nc1cccc2c1CCCC2)c1cc2c(cc1Br)OCO2 | ≤ 50
14 | Cc1cccc(NC(=O)c2cc3c(cc2Br)OCO3)c1Br | ≤ 50
15 | O=C(Nc1cccc(Cl)c1Cl)c1cc2c(cc1Br)OCO2 | ≤ 50
16 | O=C(Nc1cccc2ccccc12)c1ccc(F)cc1Br | ≤ 50
17 | O=C(Nc1cccc2ccccc12)c1ccc(Br)cc1Cl | ≤ 50
18 | Cc1cccc(NC(=O)c2cc(F)c(F)cc2Br)c1C | 50 to 100
19 | O=C(Nc1cccc2c1CCC2)c1cc2c(cc1Br)OCO2 | ≤ 50
20 | O=C1CCN(C(=O)c2cc3c(cc2Br)OCO3)c2ccccc21 | ≤ 50
21 | Cc1c(Br)cccc1NC(=O)c1cc2c(cc1Br)OCO2 | ≤ 50
22 | Cc1cccc(NC(=O)c2cc3c(cc2Br)OCO3)c1C | ≤ 50
23 | Cc1cccc(C)c1NC(=O)c1cc2c(cc1Br)OCO2 | ≤ 50
24 | Cc1c(F)cccc1NC(=O)c1cc2c(cc1Br)OCO2 | ≤ 50
25 | O=C(Nc1cccc2c1CCCC2)c1cc(F)c(F)cc1Br | ≤ 50
26 | C=C(C)c1ccccc1NC(=O)c1cc2c(cc1Br)OCO2 | ≤ 50
27 | O=C(Nc1cccc2c1CCC2)c1cc(F)c(F)cc1Br | ≤ 50
